In patent US20080020068A1, “Use Of Trisubstituted Benzopyranones” (Dr.Willmar Schwabe GmbH & Co. KG, priority 2004, published 2008):
Marks after values point to notes of the source that are not given here.

Key:
[1] = system: autoxidation of lipids (brain tissue of male mice); assay: Inhibition of autoxidation of lipids in mouse brain homogenate (chemiluminescence); type: biochemical, mice (NMRI); conditions: chemiluminescence over 60 minutes, vs solvent control
Source text: The autoxidation of lipids is associated with the emission of light. The determination of this extraordinarily weak chemiluminescence can be used for both quantifying peroxides and evaluating the efficacy of antioxidants. Brain tissue of male mice (NMRI; 20-30 g; Centre d'Elevage Janvier, Le Genest-Saint Isle, France) served as lipid-rich tissue in the present investigations. After its extraction the brain was washed with ice-cold phosphate-buffered physiological saline solution (PBS, pH 7.4) and freed from meninges and residual blood. The tissue samples were homogenised with 4 times their volume (v/w) made up of PBS and centrifugated at 1000×g and 4° C. for 10 minutes. The supernatants were immediately diluted with the same buffer to 3 times their volume and stored on ice. 250 μl of the diluted supernatant was transferred into a test tube and incubated for 10 minutes at 37° C. in a 6-channel luminometer (Multi-Biolumat LB 9505 C, Berthold, Bad Wildbad). After adding 25 μl of compound II in PBS added with 2.5% DMSO the incubation was continued for further 10 minutes. Then the intensity of the chemiluminescence (CL) was determined over a period of 60 minutes. The percentage of the inhibition of the autoxidation was calculated in comparison to the solvent control (PBS added with 2.5% DMSO) measured simultaneously. […]

cyclooxygenase-1 (COX1) = target: T1, cyclooxygenase-1 (COX1) (Homo sapiens, UniProt P23219); assay: Cyclooxygenase-1 activity in human whole blood (TXB2 after A23187); type: cell-based; conditions: for TXB2: A23187 50 μM; for TXB2 Effect (%): percentage change vs solvent control
T1 construct: endogenous in cells; host or cells: heparinised human whole blood (platelets), stimulated with A23187
T1 sequence (P23219 24-599): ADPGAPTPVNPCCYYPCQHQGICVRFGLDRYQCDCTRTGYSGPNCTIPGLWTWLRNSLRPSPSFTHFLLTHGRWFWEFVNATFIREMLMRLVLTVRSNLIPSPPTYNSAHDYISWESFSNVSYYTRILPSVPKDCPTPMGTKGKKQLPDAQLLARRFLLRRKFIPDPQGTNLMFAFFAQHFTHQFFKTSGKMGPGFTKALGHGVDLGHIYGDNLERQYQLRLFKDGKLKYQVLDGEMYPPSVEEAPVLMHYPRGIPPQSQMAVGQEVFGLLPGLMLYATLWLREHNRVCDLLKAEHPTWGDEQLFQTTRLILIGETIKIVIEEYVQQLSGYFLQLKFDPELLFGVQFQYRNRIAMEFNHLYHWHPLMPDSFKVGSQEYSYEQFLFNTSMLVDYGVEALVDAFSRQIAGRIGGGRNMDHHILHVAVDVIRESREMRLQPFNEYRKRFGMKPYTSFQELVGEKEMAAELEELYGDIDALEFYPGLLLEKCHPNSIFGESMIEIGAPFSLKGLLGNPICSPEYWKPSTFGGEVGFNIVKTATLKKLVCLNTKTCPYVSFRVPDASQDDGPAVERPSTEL
Protocol: (§1) Heparinised human whole blood was used for the investigations. 100 μl of whole blood were added into each well of 96-well microtiter plates. Separated plates were used for the determination of the cyclooxygenase-1 (COX1) and lipoxygenase (LO) activiy as well as for the induction of cyclooxygenase-2 (COX2).
(§2) Compound II was diluted in DME medium (DMEM) with 1% of antibiotics/antimycotics solution and 2 mM L-glutamine (Sigma, Deisenhofen) using DMSO (final concentration 0.1%) as solubility promoter. After adding 50 μl of compound II the tests were incubated for 60 min. at 37° C. Subsequently, 50 μl of calciumionophor A23187 (final concentration 50 μM) were added to stimulate the eicosanoid synthesis. After incubating for further 30 min. at 37° C. the microtiter plates were centrifuged for 5 min. at 4° C. with 1500 g. The plasma was pipetted off and frozen at −80° C. until analysed.
(§3) In the plasma samples TXB2, PGE2 and cystenyl leukotrienes (cystenyl-LT) were determined as parameters for the COX1, COX2 and LO activity. For the analysis commercial EIA test kits (TXB2 and PGE2: Caymann/IBL, Hamburg; cystenyl leukotrienes: CAST-2000, Milenia, Bad Nauheim) were used in accordance with the manufacturers' instructions. […] This spectrum of efficacy is to be regarded as extremely advantageous because in the therapeutic use of compound II the side effects typical of COX1 inhibitors, such as gastrointestinal complications (erosions, ulcerations) or hemorrhages due to the inhibition of the thrombocyte aggregation need therefore not to be taken into consideration.

IL-1β = assay: Synthesis of IL-1β in LPS-stimulated activated murine peritoneal macrophages; type: cell-based, mouse; conditions: for IL-1β: LPS 1 μg/ml, 24 h, average of three parallel tests; for IL-1β Effect (%): percentage change vs solvent control
Protocol: (§4) The influence of compound II on the synthesis of the proinflammatory cytokines IL-1β, TNF-α and IL-6 was determined by using activated murine peritoneal macrophages. In order to recover the activated macrophages 3×10^9 killed coryn bacterium parvum bacteria (Changzhou Yanshen Co. Ltd., Changzhou, China) in 0.5 ml PBS were injected intraperitoneally into male NMRI mice (Centre d'Elevage Janvier, Le Genest-Saint Isle, France). 6 days later the abdominal cavity was rinsed with 2.5 ml Hanks' balanced saline solution (HBSS) free of calcium and magnesium added with 10 U/ml heparine. The cells were resuspended at a concentration of 2×10^6 cells/ml in complete RPMI medium supplemented with 10% fetal bovine serum. […] cell suspension were filled into the wells of 96-well microtiter plates, respectively. After an incubation period of 2 h non-adherent cells were removed and the remaining cell lawn was washed twice with culture medium (37° C.). The macrophages were preincubated for 30 min. with compound II and then the synthesis of proinflammatory cytokines was induced by adding 1 μg/ml lipopolysaccharide of E. coli (serotype 0127:B8, Sigma, Deisenhofen). After incubating for 24 h (37° C., 5% CO2 in air) the cells were lysed by freezing and thawing for three times, the cell supernatants were recovered and frozen at −80° C. until analysed. The determination of the cytokine concentration in the cell supernatant was effected by means of commercial test kits (Duosets IL-1β, TNF-α and IL-6, R&D, Wiesbaden) in correspondence with the manufacturer's instructions. All investigations were conducted three times. The influence of compound II on the synthesis of the cytokines was evaluated in comparison to solvent controls (0.1% DMSO in complete RPMI medium) that were tested simultaneously.

lipoxygenase (LO) = target: T2, lipoxygenase (LO) (Homo sapiens, UniProt P09917); assay: Lipoxygenase activity in human whole blood (cystenyl-LT after A23187); type: cell-based; conditions: for Cystenyl-LT: A23187 50 μM; for Cystenyl-LT Effect (%): percentage change vs solvent control
T2 construct: endogenous in cells; host or cells: heparinised human whole blood (leukocytes), stimulated with A23187
T2 sequence (P09917 1-674): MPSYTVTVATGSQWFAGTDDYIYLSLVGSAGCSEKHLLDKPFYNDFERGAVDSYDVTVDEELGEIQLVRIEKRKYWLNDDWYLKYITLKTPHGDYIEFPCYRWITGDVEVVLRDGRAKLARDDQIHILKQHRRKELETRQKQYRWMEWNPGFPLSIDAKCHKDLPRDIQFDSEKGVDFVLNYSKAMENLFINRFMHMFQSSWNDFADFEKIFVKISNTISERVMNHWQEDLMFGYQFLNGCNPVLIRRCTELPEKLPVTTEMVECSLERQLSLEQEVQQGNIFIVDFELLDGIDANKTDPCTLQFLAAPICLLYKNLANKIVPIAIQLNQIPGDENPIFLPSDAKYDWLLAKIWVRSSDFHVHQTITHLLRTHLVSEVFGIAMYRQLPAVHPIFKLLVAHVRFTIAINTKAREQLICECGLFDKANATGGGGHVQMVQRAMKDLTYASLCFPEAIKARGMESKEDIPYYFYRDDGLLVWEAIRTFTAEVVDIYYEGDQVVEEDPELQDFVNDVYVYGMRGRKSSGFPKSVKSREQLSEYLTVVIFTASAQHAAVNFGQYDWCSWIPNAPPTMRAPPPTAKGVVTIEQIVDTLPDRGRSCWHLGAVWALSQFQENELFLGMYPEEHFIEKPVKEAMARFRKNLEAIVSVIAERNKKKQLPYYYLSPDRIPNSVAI
Protocol: as §1, §2, §3

TNF-α = assay: Synthesis of TNF-α in LPS-stimulated activated murine peritoneal macrophages; type: cell-based, mouse; conditions: for TNF-α: LPS 1 μg/ml, 24 h, average of three parallel tests; for TNF-α Effect (%): percentage change vs solvent control
Protocol: as §4

cyclooxygenase-2 (COX2) = target: T3, cyclooxygenase-2 (COX2) (Homo sapiens, UniProt P35354); assay: Cyclooxygenase-2 activity in human whole blood (PGE2 after aspirin pretreatment and LPS); type: cell-based; conditions: for PGE2: aspirin pretreated, LPS 10 μg/ml, 18 h; for PGE2 Effect (%): percentage change vs solvent control
T3 construct: to induce the expression of COX2 25 μl of lipopolysaccharide of E. coli; endogenous in cells; host or cells: heparinised human whole blood, aspirin-pretreated, COX2 induced with LPS
T3 sequence (P35354 18-604): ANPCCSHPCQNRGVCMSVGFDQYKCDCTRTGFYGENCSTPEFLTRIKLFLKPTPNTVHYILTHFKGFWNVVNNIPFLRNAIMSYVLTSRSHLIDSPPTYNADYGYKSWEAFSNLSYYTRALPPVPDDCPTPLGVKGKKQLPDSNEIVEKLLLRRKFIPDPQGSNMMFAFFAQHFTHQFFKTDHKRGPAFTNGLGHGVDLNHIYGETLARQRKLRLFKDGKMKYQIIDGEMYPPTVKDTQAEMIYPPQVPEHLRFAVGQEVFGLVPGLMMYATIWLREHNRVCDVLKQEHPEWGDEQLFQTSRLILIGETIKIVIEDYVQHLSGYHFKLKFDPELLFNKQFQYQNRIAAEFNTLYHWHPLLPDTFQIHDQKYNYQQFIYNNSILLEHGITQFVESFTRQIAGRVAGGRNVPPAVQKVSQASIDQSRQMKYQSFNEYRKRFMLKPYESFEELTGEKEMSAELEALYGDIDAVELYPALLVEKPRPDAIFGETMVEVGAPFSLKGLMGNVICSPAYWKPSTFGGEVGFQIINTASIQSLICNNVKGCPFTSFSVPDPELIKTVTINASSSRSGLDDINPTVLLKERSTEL
Protocol: as §1
Then compound II and the solvent (DMEM with 0.1% DMSO), respectively, were added in a volume of 25 μl. Moreover, to induce the expression of COX2 25 μl of lipopolysaccharide of E. coli (serotype 0127:B8, final concentration 10 μg/ml) were added. After incubating for 18 h at 37° C. the plasma was recovered as described above and also stored at −80° C. until analysed.
as §3

IL-6 = assay: Synthesis of IL-6 in LPS-stimulated activated murine peritoneal macrophages; type: cell-based, mouse; conditions: for IL-6 pg/ml: LPS 1 μg/ml, 24 h, average of three parallel tests; for IL-6 Effect (%): percentage change vs solvent control
Protocol: as §4

[2] = 10 μg/ml (first line so printed, r17-18), human whole blood
[3] = 10 μg/ml (first line so printed, r17-18)
[4] = 10 μg/ml (second line so printed, r19-20), human whole blood
[5] = 10 μg/ml (second line so printed, r19-20)
[6] = 30 μg/ml, human whole blood, average of two parallel tests
[7] = 100 μg/ml, human whole blood, average of two parallel tests

Structure (SMILES): O=c1ccc2cc(O)c(O)c(O)c2o1 [Compound II, 6,7,8-Trihydroxy-2H-1-benzopyran-2-one]
- half-maximal inhibitory concentration, autoxidation of lipids [1]: 53 ng/mL
- TXB2 (cyclooxygenase-1 (COX1); [2]): 7825 pg/mL
- TXB2 Effect (%) (cyclooxygenase-1 (COX1); [3]): −20%
- TXB2 (cyclooxygenase-1 (COX1); [4]): 7278 pg/mL
- TXB2 Effect (%) (cyclooxygenase-1 (COX1); [5]): −26%
- TXB2 (cyclooxygenase-1 (COX1); [6]): 9993 pg/mL
- TXB2 Effect (%) (cyclooxygenase-1 (COX1); 30 μg/ml): +2%
- TXB2 (cyclooxygenase-1 (COX1); [7]): 9115 pg/mL
- TXB2 Effect (%) (cyclooxygenase-1 (COX1); 100 μg/ml): −7%
- effect on the activity of COX1 (in words) (cyclooxygenase-1 (COX1); human whole blood): hardly affected
- IL-1β (IL-1β; 10 μg/ml): 3789 pg/mL
- IL-1β Effect (%) (IL-1β; 10 μg/ml): +7%
- IL-1β (IL-1β; 30 μg/ml): 3356 pg/mL
- IL-1β Effect (%) (IL-1β; 30 μg/ml): −6%
- inhibition of the synthesis of IL-1β (in words) (IL-1β; 100 μg/ml): significant inhibition
- IL-1β (IL-1β; 100 μg/ml): 430 pg/mL
- IL-1β Effect (%) (IL-1β; 100 μg/ml): −88* %
- Cystenyl-LT (lipoxygenase (LO); [2]): 3557 pg/mL
- Cystenyl-LT Effect (%) (lipoxygenase (LO); [3]): −51%
- Cystenyl-LT (lipoxygenase (LO); [4]): 5193 pg/mL
- Cystenyl-LT Effect (%) (lipoxygenase (LO); [5]): −28%
- Cystenyl-LT (lipoxygenase (LO); [6]): 2089 pg/mL
- Cystenyl-LT Effect (%) (lipoxygenase (LO); 30 μg/ml): −71%
- Cystenyl-LT (lipoxygenase (LO); [7]): 661 pg/mL
- Cystenyl-LT Effect (%) (lipoxygenase (LO); 100 μg/ml): −91%
- inhibition of the activity of LO (in words) (lipoxygenase (LO); human whole blood): potent inhibition
- TNF-α (TNF-α; 10 μg/ml): 10050 pg/mL
- TNF-α Effect (%) (TNF-α; 10 μg/ml): +19%
- TNF-α (TNF-α; 30 μg/ml): 10189 pg/mL
- TNF-α Effect (%) (TNF-α; 30 μg/ml): +21%
- inhibition of the synthesis of TNF-α (in words) (TNF-α; 100 μg/ml): significant inhibition
- TNF-α (TNF-α; 100 μg/ml): 6251 pg/mL
- TNF-α Effect (%) (TNF-α; 100 μg/ml): −26* %
- PGE2 (cyclooxygenase-2 (COX2); [2]): 3679 pg/mL
- PGE2 Effect (%) (cyclooxygenase-2 (COX2); [3]): −66%
- PGE2 (cyclooxygenase-2 (COX2); [4]): 5499 pg/mL
- PGE2 Effect (%) (cyclooxygenase-2 (COX2); [5]): −49%
- PGE2 (cyclooxygenase-2 (COX2); [6]): 2626 pg/mL
- PGE2 Effect (%) (cyclooxygenase-2 (COX2); 30 μg/ml): −76%
- PGE2 (cyclooxygenase-2 (COX2); [7]): 2232 pg/mL
- PGE2 Effect (%) (cyclooxygenase-2 (COX2); 100 μg/ml): −79%
- inhibition of the activity of COX2 (in words) (cyclooxygenase-2 (COX2); human whole blood): potent inhibition
- IL-6 pg/ml (IL-6; 10 μg/ml): 23078 pg/mL
- IL-6 Effect (%) (IL-6; 10 μg/ml): −27* %
- IL-6 pg/ml (IL-6; 30 μg/ml): 22519 pg/mL
- IL-6 Effect (%) (IL-6; 30 μg/ml): −28* %
- inhibition of the synthesis of IL-6 (in words) (IL-6; 100 μg/ml): significant inhibition
- IL-6 pg/ml (IL-6; 100 μg/ml): 976 pg/mL
- IL-6 Effect (%) (IL-6; 100 μg/ml): −97* %

Structure (SMILES): Cc1c(C)c2c(c(C)c1O)CCC(C)(C(=O)O)O2 (centres unmarked) [Trolox, reference compound]
- half-maximal inhibitory concentration, autoxidation of lipids [1]: 1665 ng/mL
